Drawing on PubChem BioAssay (NCI), this text covers GI50 and TGI for seven compounds.

Among the test systems are 786-0 renal; CAKI-1 renal; EKVX NSCLC; MOLT-4 leukemia; OVCAR-4 ovarian; SK-MEL-2 melanoma; SK-MEL-28 melanoma; SN12C renal; SR leukemia; T-47D breast.
What all share (experiment): NCI tumour cell line growth inhibition, 48 h

SMILES strings stand for the structures. “And” between values parts separate entries of the source, which are not always exact repeats. Identical values can stand only once.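 Cultured in 96-well plates, cells were exposed to test compound for 48 hours across five concentrations. The concentration for 50% growth inhibition is given as GI50. Definition used: TGI = concentration required for complete inhibition of growth.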

Regarding `Nc1cc(O)ccc1N=Nc1ccc(-c2nc3ccccc3[nH]2)cc1`, the GI50 in the experiment on 786-0 renal was 77.2 µM; with CAKI-1 renal it was 3.51 µM; with EKVX NSCLC, 21 µM; in the experiment on MOLT-4 leukemia, more than 100 µM; in the experiment with OVCAR-4 ovarian, more than 100 µM; in the experiment on SK-MEL-2 melanoma it was 45.1 µM. In addition, the GI50 with SK-MEL-28 melanoma is 34.8 µM; with SN12C renal, 53.5 µM; in the experiment on SR leukemia, 68.5 µM; with T-47D breast it was 29.9 µM. Also, the TGI was more than 100 µM in the experiment with 786-0 renal; 82.3 µM with CAKI-1 renal; 92.1 µM in the experiment on EKVX NSCLC; more than 100 µM in the experiment with MOLT-4 leukemia; more than 100 µM with OVCAR-4 ovarian; more than 100 µM in the experiment with SK-MEL-2 melanoma. The TGI in the experiment with SK-MEL-28 melanoma, with SN12C renal, in the experiment on SR leukemia and in the experiment with T-47D breast was more than 100 µM throughout.

As to `CN(Cc1cccc(F)c1)c1ccc(CO)c(Cl)c1`, the GI50 with 786-0 renal was 13 µM; in the experiment on CAKI-1 renal, 3.05 µM; in the experiment with EKVX NSCLC it was 27.2 µM; in the experiment on MOLT-4 leukemia, 29 µM; with OVCAR-4 ovarian it was 1.61 µM; in the experiment on SK-MEL-2 melanoma, 8.39 µM. Moreover, the GI50 in the experiment with SK-MEL-28 melanoma is 20.7 µM; in the experiment with SN12C renal it was 22.3 µM; with SR leukemia, 24.4 µM; in the experiment with T-47D breast, 0.548 µM. The TGI in the experiment with 786-0 renal was 41.2 µM; in the experiment on CAKI-1 renal, more than 61.3 µM; in the experiment on EKVX NSCLC, more than 100 µM; in the experiment on MOLT-4 leukemia, more than 83.5 µM; in the experiment with OVCAR-4 ovarian, 17 µM; in the experiment on SK-MEL-2 melanoma, 33.7 µM. Moreover, the TGI with SK-MEL-28 melanoma was more than 100 µM; in the experiment with SN12C renal it was more than 100 µM; in the experiment with SR leukemia, more than 88.6 µM; with T-47D breast, 3.92 µM.

As to `CC1=C(/C=C/C(C)=C/C=C/C(C)=C/C=N/NC(=S)NC(=S)N/N=C/C=C(C)/C=C/C=C(C)/C=C/C2=C(C)CCCC2(C)C)C(C)(C)CCC1`, the GI50 with 786-0 renal was 1.75 µM and 0.944 µM; in the experiment on CAKI-1 renal it was 1.6 µM and 0.853 µM; in the experiment with EKVX NSCLC it was 3.97 µM and 1.66 µM; with MOLT-4 leukemia, 1.16 µM and 0.667 µM; in the experiment on OVCAR-4 ovarian it was 1.74 µM and 1.22 µM; in the experiment with SK-MEL-2 melanoma, 5.79 µM and 1.82 µM. The GI50 was 3.23 µM and 1.85 µM with SK-MEL-28 melanoma; 1.56 µM and 1.07 µM with SN12C renal; 1.43 µM and 0.938 µM in the experiment on SR leukemia; 1.49 µM and 1.09 µM in the experiment with T-47D breast. The TGI in the experiment on 786-0 renal was 5.09 µM and 1.85 µM; in the experiment on CAKI-1 renal, 7.12 µM and 2.9 µM; in the experiment on EKVX NSCLC, 11.3 µM and 7.77 µM; in the experiment with MOLT-4 leukemia it was 6.09 µM and 2.45 µM; in the experiment with OVCAR-4 ovarian it was 7.84 µM and 5.4 µM; with SK-MEL-2 melanoma, 12.5 µM and 6.97 µM. The TGI was 9.12 µM and 6.78 µM in the experiment on SK-MEL-28 melanoma; 6.34 µM and 3.32 µM with SN12C renal; 8.12 µM and 3.79 µM in the experiment with SR leukemia; 8.43 µM and 4.34 µM in the experiment on T-47D breast.

Turning to `COC1=C(C)C(=O)c2c(c(CCCl)c3n2CCC3O)C1=O` (stereo not given), the GI50 was 0.81 µM with 786-0 renal; 1.22 µM in the experiment on CAKI-1 renal; 2.3 µM with EKVX NSCLC; 7.37 µM in the experiment on MOLT-4 leukemia; 9.36 µM in the experiment on OVCAR-4 ovarian; 0.376 µM with SK-MEL-2 melanoma. In addition, the GI50 in the experiment with SK-MEL-28 melanoma was 0.811 µM; in the experiment on SN12C renal, 0.694 µM; in the experiment with SR leukemia it was 0.409 µM; with T-47D breast it was 16.3 µM. In addition, the TGI in the experiment on 786-0 renal is 6.5 µM; in the experiment on CAKI-1 renal, 3.95 µM; in the experiment with EKVX NSCLC, 7.69 µM; in the experiment with MOLT-4 leukemia, 99.4 µM; in the experiment with OVCAR-4 ovarian, 39 µM; in the experiment with SK-MEL-2 melanoma it was 1.57 µM. The TGI in the experiment with SK-MEL-28 melanoma is 3.85 µM; in the experiment on SN12C renal it was 14.2 µM; in the experiment on SR leukemia it was more than 26.8 µM; in the experiment with T-47D breast, more than 82.9 µM.

With `O=C(O)c1cn(C2CC2)c2cc(N3CCN(C(=O)Nc4nc(-c5ccccc5)cs4)CC3)c(F)cc2c1=O`, the GI50 was 0.592 µM in the experiment on 786-0 renal; 3.59 µM in the experiment on CAKI-1 renal; 3.17 µM in the experiment on EKVX NSCLC; 1.61 µM in the experiment with MOLT-4 leukemia; 2.93 µM in the experiment with OVCAR-4 ovarian; 1.85 µM with SK-MEL-2 melanoma. For the same compound, the GI50 with SK-MEL-28 melanoma was 0.705 µM; in the experiment with SN12C renal, 0.774 µM; in the experiment on SR leukemia it was 0.35 µM; in the experiment on T-47D breast, 1.74 µM. For the same compound, the TGI was 16.9 µM with 786-0 renal; more than 100 µM with CAKI-1 renal; 85.2 µM in the experiment with EKVX NSCLC; 11.5 µM in the experiment on MOLT-4 leukemia; more than 100 µM in the experiment on OVCAR-4 ovarian; 6.42 µM with SK-MEL-2 melanoma. Further, the TGI in the experiment with SK-MEL-28 melanoma is more than 100 µM; with SN12C renal it was more than 100 µM; in the experiment on SR leukemia, 73.8 µM; in the experiment with T-47D breast, more than 100 µM.

`CC(C)N1CCN(Cc2ccc3c(NNC(=O)c4ccccc4)nc4cc(F)ccc4n23)CC1`: the GI50 in the experiment with 786-0 renal is 0.323 µM; in the experiment with CAKI-1 renal it was 0.249 µM; in the experiment on EKVX NSCLC, 0.172 µM; in the experiment with MOLT-4 leukemia, 0.24 µM; in the experiment on OVCAR-4 ovarian, 0.293 µM; with SK-MEL-2 melanoma, 2.78 µM. In addition, the GI50 with SK-MEL-28 melanoma is 0.599 µM; with SN12C renal, 0.529 µM; with SR leukemia, 0.185 µM; in the experiment with T-47D breast, 0.419 µM. Also, the TGI in the experiment on 786-0 renal was determined as 6.01 µM; with CAKI-1 renal, 6.26 µM; with EKVX NSCLC, 6.79 µM; in the experiment on MOLT-4 leukemia, 2.04 µM; in the experiment with OVCAR-4 ovarian, 7.71 µM; in the experiment on SK-MEL-2 melanoma, 20.8 µM. Further, the TGI in the experiment on SK-MEL-28 melanoma was 4.58 µM; in the experiment on SN12C renal it was 12.8 µM; in the experiment with SR leukemia it was 6.83 µM; with T-47D breast it was 11.7 µM.

In the case of `Cc1cc2cc3ccc(N(C)C)cc3nc2cc1N`, the GI50 is 0.597 µM in the experiment on 786-0 renal; 0.321 µM with CAKI-1 renal; 0.273 µM in the experiment on EKVX NSCLC; 0.438 µM in the experiment with MOLT-4 leukemia; 0.904 µM with OVCAR-4 ovarian; 0.392 µM with SK-MEL-2 melanoma. The GI50 was 1.69 µM in the experiment with SK-MEL-28 melanoma, 0.411 µM with SN12C renal, 0.536 µM in the experiment on SR leukemia and 0.434 µM with T-47D breast. For the same compound, the TGI was 2.47 µM in the experiment with 786-0 renal; 1.35 µM in the experiment with CAKI-1 renal; 3.11 µM in the experiment with EKVX NSCLC; 9.31 µM in the experiment with MOLT-4 leukemia; 4.46 µM in the experiment on OVCAR-4 ovarian; 1.6 µM with SK-MEL-2 melanoma. Moreover, the TGI in the experiment with SK-MEL-28 melanoma is 4.74 µM; in the experiment with SN12C renal it was 4.54 µM; in the experiment on SR leukemia, 5.68 µM; in the experiment on T-47D breast it was 3.5 µM.
